Read-outs that look alike come from different tables or passages of the source.
Assays:
filaggrin gene = assay: Filaggrin gene expression test by acyl valines or acyl alanines (real time PCR, 24 hours); type: cell-based; settings: Homo sapiens
Experimental: Human normal epidermal keratinocytes NHEK (NB) (manufactured by KURABO INDUSTRIES LTD.) were precultured with HuMedia-KG2 (manufactured by KURABO INDUSTRIES LTD.) and the precultured human normal epidermal keratinocytes were adjusted in a concentration of 15×10^4 cells/mL. After adjusting the concentration, 2 mL of the culture solution (that is, 30×10^4 cells/well) was poured to a plate having 6 wells and the poured culture solution was cultivated for 1 day. […] C12Ala), decanoyl-alanine (Example 21: C10Ala), octanoyl-alanine (Example 22: C8Ala), hexanoyl-alanine (Example 23: C6Ala), and butanoyl-alanine (Example 24: C4Ala)) were added to the wells so that each of the samples has the concentration illustrated in respective graphs and the added samples were reacted for 24 hours. After the reaction, entire RNA was extracted from the cells and subjected to reverse transcription. The amplified amounts of the target gene (filaggrin) were measured by real time PCR (n=2). […] GAPDH was used as a corrected gene. Calculation was carried out using a comparative CT method. TaqMan (registered trademark) Gene Expression was used as a primer and a probe and FAM was used as a fluorescent dye. The following evaluation was carried out depending on the amplified amounts. The results are listed in Table 2 and 3 and illustrated in FIGS. 4 and 5.

[1] = Moisture absorption/retention test; type: physicochemical; settings: for Increased weight ratio after 7 days at 35% RH (%) (B): following 65% RH; for (B)/(A) × 100(%): ratio of weight increase at 35% RH to that at 65% RH; for moisturizing power: compared with glycerol and sorbitol
Source text: About 1 g of each compound was precisely weighed in a weighing bottle and the weighed samples were placed in a constant-temperature and constant-humidity chamber (LH-30-10, manufactured by NAGANO SCIENCE CO, LTD.) in which the humidity was set to 65% RH to measure a weight increase ratio (A) after 7 days. Subsequently, the same samples were placed in the constant-temperature and constant-humidity chamber in which the humidity was set to 35% RH to measure a weight increase ratio (B) after 7 days. It can be considered that, as the ratio of (B) to (A) becomes higher, more moisture can be retained even when the environment becomes low humidity and thus that the compound having the higher value of the ratio can be considered as a compound having higher moisturizing power.

[2] = system: Human normal epidermal keratinocytes NHEK (NB); assay: Cytotoxicity test (Neutral Red, cell survival rate); type: cell-based; settings: 500 μM, 24 hours; for Cell survival rate (%): relative to light absorbance of the control
Experimental: Human normal epidermal keratinocytes NHEK (NB) (manufactured by KURABO INDUSTRIES LTD.) were precultured with HuMedia-KG2 (manufactured by KURABO INDUSTRIES LTD.) and the precultured human normal epidermal keratinocytes were adjusted in a concentration of 15×10^4 cells/mL. After adjusting the concentration, 2 mL of the culture solution (that is, 30×10^4 cells/well) was poured to a plate having 6 wells and the poured culture solution was cultivated for 1 day. Samples (lauroyl-valine (Example 25: C12Val), decanoyl-valine (Example 26: C10Val), octanoyl-valine (Example 27: C8Val), hexanoyl-valine (Example 28: C6Val), butanoyl-valine (Example 29: C4Val), and acetyl-valine (Example 30: C2Val)) were added to the wells so that each of the samples has the concentration illustrated in respective graphs and the added samples were reacted for 24 hours. Thereafter, the culture medium was discarded and replaced with 2 mL/well of Neutral Red solution. The resultant sample was further cultured for 2 hours. As the Neutral Red solution, a solution prepared by diluting Neutral Red (manufactured by KURABO INDUSTRIES LTD.) with HuMedia-KG2 culture medium/normal saline solution (2:1) to 1/100 was used. The cells stained with the Neutral Red solution were washed with PBS (-) one time, thereafter fixed by 1.5 mL/well of 1% CaCl2/1% formalin solution, extracted by adding 1.5 mL/well of 1% acetic acid/50% ethanol solution at room temperature for 20 minutes. The light absorbance of the resultant sample was measured using a plate reader at 540/630 nm.
The following evaluation was carried out depending on the cell survival rates. The results are listed in Table 4 and illustrated in FIG. 6.

[3] = 10 μM, 24 hours, NHEK (NB), control = 100%, read-out: Amplified amount (%)
[4] = 10 μM, 24 hours, NHEK (NB), read-out: Evaluation (amplified amount)
[5] = 24 hours, NHEK (NB), control = 100%, read-out: Amplified amount (%)
[6] = 24 hours, NHEK (NB), read-out: Evaluation (amplified amount)

SMILES | activity at 500 µM (filaggrin gene; [5]) [%] | activity at 500 µM (filaggrin gene; [6]) [%] | Evaluation (cell survival rate) [2] | Cell survival rate (%) [2] [%] | further results
CCCCCCCCCC(=O)N[C@@H](C)C(=O)O [Example 21, decanoyl-alanine] |  |  |  |  | activity at 10 µM (filaggrin gene; [3]): 117%; activity at 10 µM (filaggrin gene; [4]): 100 to 200%
OC[C@@H](O)[C@@H](O)[C@H](O)[C@@H](O)CO [Comparative Example 4, Sorbitol, reference compound] |  |  |  |  | Increased weight ratio after 7 days at 35% RH (%) (B) [1]: 0.5%; Increased weight Ratio after 7 days at 65% RH (%) (A) [1]: 4.2%; (B)/(A) × 100(%) [1]: 12.0%
CCCCCCCCCCCC(=O)N[C@@H](C)C(=O)O [Example 20, lauroyl-alanine] |  |  |  |  | activity at 10 µM (filaggrin gene; NHEK, 24 h, read-out: Amplified amount (%)): 128%; activity at 10 µM (filaggrin gene; NHEK, 24 h, read-out: Evaluation (amplified amount)): 100 to 200%
CCCCCC(=O)N[C@@H](C)C(=O)O [Example 23, hexanoyl-alanine] | 125 | 100 to 200 |  |  | 
CCCCCCCC(=O)N[C@H](C(=O)[O-])C(C)C.[Na+] [Example 12, N-octanoyl-L-valine sodium salt] |  |  |  |  | Increased weight ratio after 7 days at 35% RH (%) (B) [1]: 8.4%; Increased weight Ratio after 7 days at 65% RH (%) (A) [1]: 25.4%; moisturizing power [1]: high moisturizing power; (B)/(A) × 100(%) [1]: 33.2%
CCCCCCCCCCCC(=O)N[C@H](C(=O)O)C(C)C [Example 14, lauroyl-valine] |  |  | D (Lower than 50%) | 3 | activity at 10 µM (filaggrin gene; [3]): 200%; activity at 10 µM (filaggrin gene; [4]): > 200%; cytotoxicity ([2]; in words): high
CCCCCCCC(=O)N[C@@H](C)C(=O)O [Example 22, octanoyl-alanine] | 256 | > 200 |  |  | 
CCCCCC(=O)N[C@H](C(=O)O)C(C)C [Example 17, hexanoyl-valine] | 112 | 100 to 200 | A (99% or higher) | 99 | 
CCCCCCCC(=O)N[C@H](C(=O)O)C(C)C [Example 16, octanoyl-valine] | 302 | > 200 | A (99% or higher) | 100 | 
CCCCCCCC(=O)N[C@@H](C)C(=O)[O-].[Na+] [Example 13, N-octanoyl-L-alanine sodium salt] |  |  |  |  | Increased weight ratio after 7 days at 35% RH (%) (B) [1]: 10.6%; Increased weight Ratio after 7 days at 65% RH (%) (A) [1]: 29.6%; moisturizing power [1]: high moisturizing power; (B)/(A) × 100(%) [1]: 35.9%
CC(=O)N[C@H](C(=O)O)C(C)C [Example 19, acetyl-valine] | 141 | 100 to 200 | A (99% or higher) | 105 | 
CCCCCCCCCC(=O)N[C@H](C(=O)O)C(C)C [Example 15, decanoyl-valine] |  |  | B (75% or higher and lower than 99%) | 75 | activity at 10 µM (filaggrin gene; [3]): 171%; activity at 10 µM (filaggrin gene; [4]): 100 to 200%
OCC(O)CO [Comparative Example 3, Glycerol, reference compound] |  |  |  |  | Increased weight ratio after 7 days at 35% RH (%) (B) [1]: 13.2%; Increased weight Ratio after 7 days at 65% RH (%) (A) [1]: 48.1%; (B)/(A) × 100(%) [1]: 27.4%
CCCC(=O)N[C@@H](C)C(=O)O [Example 24, butanoyl-alanine] | 162 | 100 to 200 |  |  | 
CCCC(=O)N[C@H](C(=O)O)C(C)C [Example 18, butanoyl-valine] | 126 | 100 to 200 | A (99% or higher) | 102 | 

— patent US10406086B2, “Moisturizer and cosmetic including the same” (AJINOMOTO CO., INC., priority 2015, dated 2019)
